Results reported in US8492589B2, “Alkynyl phenyl derivative compounds for treating ophthalmic diseases and disorders” (Acucela Inc., priority 2007, dated 2013).
Marks after values point to notes of the source that are not given here. Blank lines part the entries; values can stand above or below the compound they belong to.

Assays:
[1] = system: ERG response in the eyes of mice; assay: Electroretinographic (ERG) study, C57BL/6 mice; type: in vivo; details: for b-wave ampl. 0.01 cd.s/m^2: dark-adapted ERG, in µV (unit assumed); for Vmax average: light-adapted ERG
Description: This example describes determining the effect of an alkyne derivative compound that is a visual cycle modulator on the magnitude of the ERG response in the eyes of mice after oral dosing of the animals with the compound. […]
Three groups of nine-week old mice (19-25 grams), both genders (strain C5 7BL/6, Charles River Laboratories, Wilmington, Mass.) are housed at room temperature, 72±4° F., and relative humidity of approximately 25%. Animals are housed in a 12-hour light/dark cycle environment, have free access to feed and drinking water and are checked for general health and well-being prior to use and during the study. Body weights are determined for a representative sample of mice prior to initiation of dosing. The average weight determined from this sampling is used to establish the dose for all mice in the study.
(§1) Each test compound is dissolved in the control solvent (EtOH), and diluted 1:10 ([…]) in corn oil (Crisco Pure Corn Oil, J.M. Smucker Company, Orrville, Ohio) to the desired dose (mg/kg) in the desired volume (˜0.1 mL/animal). The control vehicle is ethanol: corn oil (1:10 (0.9 ml/9 ml)). The treatment designations and animal assignments are described in Table 16.
(§2) Animals are dosed once orally by gavage, with the assigned vehicle control or test compounds during the light cycle (between 30 min and 3 hours 30 min after the beginning of the light cycle).
(§3) ERG recordings are made on dark-adapted and, subsequently (during the course of the same experiment), on light-adapted states. For the dark-adapted response, animals are housed in a dark-adapted environment for at least 1 hour prior to the recording, commencing at least 30 minutes after the start of the light cycle.
(§4) Pupils were dilated by placing a 5 microliter drop of mydriatic solution (tropicamide 0.5%) in the recorded eye. A mouse corneal monopolar contact lens electrode (Mayo Corporation, Inazawa, Aichi, Japan) was placed on the cornea, and a subcutaneous reference low profile needle 12 mm electrode (Grass Telefactor, W Warwick, R.I.) was placed medial from the eye. A ground needle electrode was placed in the tail. Data collection was obtained using an Espion E^2 (Diagnosys LLC, Littleton, Mass.) ERG recording system with Color Dome Ganzfeld stimulator. Full dark-adapted intensity-response function was determined following a brief white flash stimuli of 14 intensities ranging from 0.0001 cd·s/m^2 to 333 cd·s/m^2. Subsequently, full light-adapted intensity-response function was determined following a brief white flash stimuli of 9 intensities ranging from 0.33 cd·s/m^2 to 333 cd·s/m^2. Analysis of the obtained responses was done off-line. Intensity-response function determination was done by fitting a sigmoid function to the data (Naka K I, Rushton Wash., 1966; Naka K I, Rushton Wash., 1967).

[2] = molecular target: T1, recombinant human RPE65 and LRAT (Homo sapiens, UniProt Q16518); assay: In vitro isomerase inhibition assay, recombinant human enzyme system (HEK293 homogenate); type: biochemical
T1 construct: expressed in transfected cells; host or cells: HEK293 cell clone (homogenate); CRALBP was made in E. coli TOP10
T1 sequence (Q16518 2-533 limits assumed): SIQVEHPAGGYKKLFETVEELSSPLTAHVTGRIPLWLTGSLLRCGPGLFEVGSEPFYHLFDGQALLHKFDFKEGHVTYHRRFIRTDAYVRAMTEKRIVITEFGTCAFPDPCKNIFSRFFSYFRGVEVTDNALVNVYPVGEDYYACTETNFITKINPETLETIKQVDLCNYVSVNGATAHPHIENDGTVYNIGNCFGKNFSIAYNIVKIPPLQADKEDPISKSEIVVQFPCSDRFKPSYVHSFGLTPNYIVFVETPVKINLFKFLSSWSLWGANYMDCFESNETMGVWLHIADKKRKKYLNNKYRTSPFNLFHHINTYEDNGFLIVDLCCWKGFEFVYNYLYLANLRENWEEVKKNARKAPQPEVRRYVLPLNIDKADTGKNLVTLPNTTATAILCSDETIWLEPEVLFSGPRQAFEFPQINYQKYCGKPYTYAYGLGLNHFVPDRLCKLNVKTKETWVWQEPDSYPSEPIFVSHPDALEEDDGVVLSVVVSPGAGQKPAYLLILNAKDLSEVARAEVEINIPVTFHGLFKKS
Description: The concentration dependent effect of the compounds disclosed herein on the retinol isomerization reaction can also be evaluated with a recombinant human enzyme system. […] A homogenate of HEK293 cell clone expressing recombinant human RPE65 and LRAT were the source of the visual enzymes, and exogenous all-trans-retinol (about 20 μM) was used as the substrate. Recombinant human CRALBP (about 80 ug/mL) was added to enhance the formation of 11-cis-retinal. The 200 μL Bis-Tris Phosphate buffer (10 mM, pH 7.2) based reaction mixture also contains 0.5% BSA, and 1 mM NaPPi. In this assay, the reaction was carried out at 37° C. in duplicates for one hour and was terminated by addition of 300 μL methanol. The amount of reaction product, 11-cis-retinol, was measured by HPLC analysis following Heptane extraction of the reaction mixture. […] The ability of the numerous compounds disclosed herein to inhibit isomerization reaction is quantified and the respective IC50 value is determined. The tables below summarises the IC50 values of various compounds of the present invention determined by either of the above two methods. FIG. 1 is a representative figure of the IC50 determination of the compound of Example 2.

[3] = system: ERG response in the eyes of mice; assay: Electroretinographic (ERG) study, BALB/c mice; type: in vivo; design: Vmax average: unit not given beside the values; details: for b-wave ampl. 0.01 cd.s/m^2: dark-adapted ERG, in µV (unit assumed); for Vmax average: light-adapted ERG
Description: as §1, §2, §3, §4
A related example describes determining the effect of an alkyne derivative compound that is a visual cycle modulator on the level of ERG response in the eyes of mice after oral dosing of the animals with the compound. The experimental procedure is the same as that described in the previous example with the following exceptions: 12 to 16-week old BALB/c mice were used (body weights 16-25 g).

[4] = 4 h, dose 1 (mg/kg oral), aggregated average

Change vs. control (%) ([1]; dark-adapted ERG b-wave, 4 h, dose 0.5 (mg/kg oral)): −50.65%
Change vs. control (%) ([1]; dark-adapted ERG b-wave, 4 h, dose 1 (mg/kg oral)): −94.04%
Change vs. control (%) ([1]; dark-adapted ERG b-wave, 25 h, dose 1 (mg/kg oral), compared to 4 hours vehicle): −19.93%**
b-wave ampl. 0.01 cd.s/m^2 ([1]; 4 h, dose 0.5 (mg/kg oral)): 265
b-wave ampl. 0.01 cd.s/m^2 [1, 4]: 32*
b-wave ampl. 0.01 cd.s/m^2 ([1]; 25 h, dose 1 (mg/kg oral)): 430
Change vs. control (%) ([1]; light-adapted ERG Vmax, 4 h, dose 0.5 (mg/kg oral)): 36.49%
Change vs. control (%) ([1]; light-adapted ERG Vmax, 4 h, dose 1 (mg/kg oral)): 77.03%
Change vs. control (%) ([1]; light-adapted ERG Vmax, 25 h, dose 1 (mg/kg oral), compared to 4 hours vehicle): 91.89%**
Vmax average ([1]; 4 h, dose 0.5 (mg/kg oral)): 202
Vmax average [1, 4]: 262*
Vmax average ([1]; 25 h, dose 1 (mg/kg oral)): 284
inhibition of isomerase activity (figure legend) [2]: concentration-dependent inhibition
SMILES: CCCC(O)(C#Cc1cccc(CCCN)c1)CCC [Example 2, 4-((3-(3-Aminopropyl)phenyl)ethynyl)heptan-4-ol]

Change vs. control (%) ([3]; dark-adapted ERG b-wave, 4 h, dose 0.2, BALB/c mice): −52.89%
Change vs. control (%) ([3]; dark-adapted ERG b-wave, 4 h, dose 0.3, BALB/c mice): −80.77%
Change vs. control (%) ([3]; dark-adapted ERG b-wave, 4 h, dose 0.6, BALB/c mice): −95.92%
Change vs. control (%) ([3]; dark-adapted ERG b-wave, 25 h, dose 0.3, BALB/c mice, compared to 4 hours vehicle): −55.75%**
b-wave ampl. 0.01 cd.s/m^2 ([3]; 4 h, dose 0.2, BALB/c mice): 263
b-wave ampl. 0.01 cd.s/m^2 ([3]; 4 h, dose 0.3, BALB/c mice, aggregated average): 107*
b-wave ampl. 0.01 cd.s/m^2 ([3]; 4 h, dose 0.6, BALB/c mice): 23
b-wave ampl. 0.01 cd.s/m^2 ([3]; 25 h, dose 0.3, BALB/c mice): 247
Change vs. control (%) ([3]; light-adapted ERG Vmax, 4 h, dose 0.2, BALB/c mice): −0.13%
Change vs. control (%) ([3]; light-adapted ERG Vmax, 4 h, dose 0.3, BALB/c mice): 11.33%
Change vs. control (%) ([3]; light-adapted ERG Vmax, 4 h, dose 0.6, BALB/c mice): 6.34%
Change vs. control (%) ([3]; light-adapted ERG Vmax, 25 h, dose 0.3, BALB/c mice): 10.66%
Vmax average ([3]; 4 h, dose 0.2, BALB/c mice): 163
Vmax average ([3]; 4 h, dose 0.3, BALB/c mice): 181
Vmax average ([3]; 4 h, dose 0.6, BALB/c mice): 173
Vmax average ([3]; 25 h, dose 0.3, BALB/c mice): 180
SMILES: CCCC(O)(C#Cc1cccc(C(O)CCN)c1)CCC (centres unmarked) [Example 19, 4-((3-(3-Amino-1-hydroxypropyl)phenyl)ethynyl)heptan-4-ol]
